Data reported in patent publication US20230150951A1, “2,5- OR 2,6-DISUBSTITUTED HYDROQUINONE DERIVATIVES WITH AT LEAST ONE CARBOXY, SULFO OR AMIDO GROUP USEFUL AS MEDICAMENTS” (OM PHARMA SA, priority 2020, published 2023).

What was measured:
[1] = system: STZ-induced diabetes model; experiment: STZ-induced diabetes and diabetic wound healing model; format: in vivo, CD-1 mice; conditions: IV; vs induced vehicle controls
Experimental: Diabetes murine models using streptozotocin (STZ-induced diabetes) were used to assess efficacy of compounds of the present invention for a diabetic wound healing and generate tissue samples to allow post in-life analysis of skin tissue.
These were purchased from Charles River and acclimated for 7 days upon arrival.
Aseptic technique and dosing: Although animals to be used in this study are immuno-competent, preparation of dosing solutions and dosing/weighing of animals were carried out in a sterile biosafety cabinet. IV dosing: Compounds were formulated in 5% DMSO: 10% Solutol: 10% PEG400: 75% PBS and pH adjusted to 7 with 0.5M NaOH solution. PO dosing: formulation is in water.
Animals were anaethetised and a full thickness 6 mm wound created using a sterilized biopsy punch. Wounds were imaged (Days 0). Animals were treated and imaged every 2 days out to day 14 (when control, non-diabetic mouse wounds were healed). Wound images were digitally assessed for area of wound and percentage closure versus time plotted graphically.
Treatment will continue for 2 weeks (14 days). Animal numbers in brackets are dosed for 7 days, then sampled for mid-study PD analysis.
Mid Study sampling: Following 7 days dosing 3 animals per group were killed and wound tissue removed and divided into 2 sections (A) and (B):
(A) First section is FFPE and stained with the following: H&E, Masson's Trichrome, CD31, TGF-β.
(B) Second section are homogenised and used for the following ELISAs: SOD, GTPx, Catalase, TNF-α, IL-6, TGF-β levels.

[2] = system: DBA/2 mouse strain with STZ induction of diabetes; experiment: STZ-induced diabetic retinopathy and nephropathy model in DBA/2 mice; format: in vivo; conditions: one and two weeks, FIG. 9
Experimental: Therapeutic efficacy of the compounds according to the present invention was assessed using diabetic mouse model using the DBA/2 mouse strain with STZ induction of diabetes and follow diabetic retinopathy including kidney damage. Five weeks after induction of diabetes via low dose STZ injection for 5 consecutive days, the urinary albumin:Cr ratio is […] compared to 36.9 for age-matched controls.
For treatment of diabetic nephropathy, DBA/2 mice were induced with STZ (low dose for 5 consecutive days).
Treatment was performed for four weeks (IV dosing) with weekly assessment of blood glucose and urine albumin/creatinine levels. At the end of the treatment period animals, the following samples were taken: • Blood for measurement of glucose and Blood Urea Nitrogen (BUN) • Blood for measurement of serum creatinine • Urine for final albumin/creatinine ratio. • Kidney was resected and FFPE: Picro-Sirius Red, Masson's Trichrome and H&E staining was carried out to identify areas of fibrosis, along with evidence of Mesangial sclerosis, Arteriolar hyalinosis, Glomerular Basal Membrane (GBM) thickening
To assess compound effect on diabetic retinopathy, animals had weekly images taken via Fundus Camera. Immediately prior to sacrifice, animals were injected with FITC-dextran via tail vein. During sampling, the eyes were sampled and fixed in formalin. Retinal Flatmounts were prepared and examined fluorescently looking at compound effects on vascularity and leakiness of vessels (indicted by high background staining).

human primary cells = experiment: BioMap Plus phenotypic profiling in human primary cell-based systems; conditions: 30, 10, 3.3, 1.1 μM
Experimental: A series of in vitro assays was performed using human primary cell-based assays modeling complex tissue and disease biology of organs (vasculature, immune system, skin, lung) and general tissue biology for phenotypic profiling of compounds in conditions that preserve crosstalk and feedback mechanisms relevant to in vivo outcomes.

ARPE-19 cells = experiment: ROS and cytokine/VEGF mRNA production by ARPE-19 monolayer cells in non-diabetic and diabetic milieu; format: cell-based, human; conditions: ARPE19 monolayer; for ROS: ROS % to 25 mM D-Glucose; for IL-1β R.Q. mRNA / IL-6 R.Q. mRNA / IL-18 R.Q. mRNA / TNFα R.Q. mRNA / VEGF R.Q. mRNA: relative change vs 25 mM D-Gluc
Experimental: Outer Blood Retinal Barrier conditions: human retinal pigment epithelial cells (RPE) cultures ARPE-19, a spontaneously immortalised human RPE cell line were obtained from American Type Culture Collection (Manassas, Va., USA). ARPE-19 cells and they were cultured in euglycaemic conditions (D-glucose (D-Glc), 5.5 mmol/L) and hyperglycaemic conditions (D-glucose, 25 mmol/L) for 18 days at 37° C. under 5% (vol./vol.) CO2 in medium (DMEM/F12) supplemented with 10% (vol./vol.) FBS (Hyclone; Thermo Fisher Scientific, UT, USA) and 1% (vol./vol.) penicillin/streptomycin (Hyclone; Thermo Fisher Scientific). ARPE-19 cells from passage 20 were used and the medium changed every 3-4 days. For permeability studies, ARPE-19 cells were seeded at 400,000 cells/ml (80,000 RPE cells/well) in 0.33 cm^2 HTS-Transwells (Costar; Corning, N.Y., USA). For real-time PCR, western blot analysis and immunofluorescence cells are seeded at 20,000 cells/ml.
Experimental conditions and treatments: apart from the euglycemic condition, eighteen different conditions were tested in cells cultured under 25 mmol/L D-glucose:
• Proinflammatory cytokines were evaluated in ARPE-19 cells by RT-PCR and mRNA for IL-6, TNF-α, IL-1β, IL-18, VEGF, IL-10, FGF were measured using the double delta CT method 2-ΔΔCT with Cts values for the gene of interest and the endogenous human B-actin to obtain ΔCT; mRNA values were expressed as relative change with respect to the condition 25 mM D-Gluc. (ref: Livak K J, Analysis of Relative Gene Expression Data Using Real-Time Quantitative PCR and the 2-ΔΔCT Method, Methods, 2001, 25(4), 402-408, doi 10.1006/meth.2001.1262) • ROS production was evaluated using Cell Biolabs' OxiSelect™ Intracellular ROS Assay (Green Fluorescence) (Bionova, Madrid, Spain). The assay employs the cell-permeable fluorogenic probe 2′, 7′-Dichlorodihydrofluorescin diacetate (DCFH-DA), oxidized to highly fluorescent 2′, 7′-Dichlorodihydrofluorescein (DCF) by cellular ROS. • Endothelin-1, PDGF and VCAM-1 expression was analyzed in HREC monolayers by immunohistochemical analysis and by RT-PCR. • TJ expression (ZO) is analyzed in ARPE-19 and HREC monolayers by immunohistochemical analysis.

[3] = 25 mM D-Gluc, compound 25 μg/mL
[4] = 25 mM D-Gluc, compound 50 μg/mL
[5] = diabetic milieu (25 mM D-Gluc + VEGF, TNF-α, IL-1β), compound 25 μg/mL
[6] = diabetic milieu (25 mM D-Gluc + VEGF, TNF-α, IL-1β), compound 50 μg/mL

SMILES | Blood glucose levels [1] | Blood glucose level [2] | Antiproliferative effects on human primary cells (human primary cells) | Cytotoxicity in BioMap Plus (human primary cells) | Immunomodulatory activities (human primary cells) | Inflammation-related activities (human primary cells) | Number of annotated readouts (human primary cells) | Tissue remodeling activities (human primary cells) | ROS (ARPE-19 cells; [3]) | IL-1β R.Q. mRNA (ARPE-19 cells; [3]) | IL-6 R.Q. mRNA (ARPE-19 cells; [3]) | IL-18 R.Q. mRNA (ARPE-19 cells; [3]) | TNFα R.Q. mRNA (ARPE-19 cells; [3]) | VEGF R.Q. mRNA (ARPE-19 cells; [3]) | ROS (ARPE-19 cells; [4]) | IL-1β R.Q. mRNA (ARPE-19 cells; [4]) | IL-6 R.Q. mRNA (ARPE-19 cells; [4]) | IL-18 R.Q. mRNA (ARPE-19 cells; [4]) | TNFα R.Q. mRNA (ARPE-19 cells; [4]) | VEGF R.Q. mRNA (ARPE-19 cells; [4]) | further results
O=C(O)c1cc(O)c(CN(Cc2cc(O)c(C(=O)O)cc2O)Cc2cc(O)c(C(=O)O)cc2O)cc1O [IIIc-061a, Tris(4-carboxy-2,5-dihydroxyphenylmethyl)amine] | significant reduction | significantly reduced | did not have any antiproliferative effects | not cytotoxic | decreased sIL-17A | decreased I-TAC, MIG | six | decreased Collagen I, Collagen III, PAI-1 |  |  |  |  |  |  |  |  |  |  |  |  | 
O=C(O)c1cc(NC(=O)c2cc(O)cc(C(=O)Nc3ccc(O)c(C(=O)O)c3)c2O)ccc1O [IIc-007a, 5-(3-(3-carboxy-4-hydroxyphenylaminocarbonyl)-2,5-dihydroxybenzamido)-2-hydroxy benzoic acid] |  |  | did not have any antiproliferative effects | not cytotoxic | decreased sIL-10, sIL-2 | decreased sTNFα, MIP-1α; increased IL-8; modulated MCP-1 | 12 | decreased Collagen I, Collagen IV, Collagen III, PAI-1 | 55 ± 6.4% | 0.74 ± 0.26 R.Q. | 0.73 ± 0.00 R.Q. | 0.75 ± 0.09 R.Q. | 0.57 ± 0.18 R.Q. | 0.06 ± 0.01 R.Q. | 72 ± 11% | 0.24 ± 0.11 R.Q. | 0.34 ± 0.08 R.Q. | 0.04 ± 0.00 R.Q. | 0.45 ± 0.30 R.Q. | 0.12 ± 0.03 R.Q. | ROS (ARPE-19 cells; [5]): 47 ± 7.6 %; IL-1β R.Q. mRNA (ARPE-19 cells; [5]): 41.03 ± 17.57 R.Q.; IL-6 R.Q. mRNA (ARPE-19 cells; [5]): 10.83 ± 6.90 R.Q.; IL-18 R.Q. mRNA (ARPE-19 cells; [5]): 0.07 ± 0.01 R.Q.; TNFα R.Q. mRNA (ARPE-19 cells; [5]): 6.31 ± 0.06 R.Q.; VEGF R.Q. mRNA (ARPE-19 cells; [5]): 0.11 ± 0.01 R.Q.; ROS (ARPE-19 cells; [6]): 74 ± 38 %; IL-1β R.Q. mRNA (ARPE-19 cells; [6]): 11.39 ± 6.52 R.Q.; IL-6 R.Q. mRNA (ARPE-19 cells; [6]): 1.50 ± 1.19 R.Q.; IL-18 R.Q. mRNA (ARPE-19 cells; [6]): 0.03 ± 0.00 R.Q.; TNFα R.Q. mRNA (ARPE-19 cells; [6]): 4.24 ± 0.77 R.Q.; VEGF R.Q. mRNA (ARPE-19 cells; [6]): 0.13 ± 0.02 R.Q.
O=C(O)c1cc(O)cc(CS(=O)(=O)Cc2cc(O)cc(C(=O)O)c2O)c1O [IVc-059a, 3-((2,5-Dihydroxy-3-carboxyphenyl)methylsulfonylmethyl)-2,5-dihydroxybenzoic acid] | significant reduction | significantly reduced | antiproliferative to human primary endothelial cells (1.1 μM) | not cytotoxic | decreased sIL-10, sIL-2 | decreased sTNFα | three |  | 62 ± 9% | 0.20 ± 0.05 R.Q. | 0.28 ± 0.11 R.Q. | 0.07 ± 0.01 R.Q. | 0.27 ± 0.08 R.Q. | 0.11 ± 0.01 R.Q. | 116 ± 12% | 0.21 ± 0.13 R.Q. | 0.28 ± 0.11 R.Q. | 0.04 ± 0.01 R.Q. | 0.27 ± 0.10 R.Q. | 0.06 ± 0.03 R.Q. | ROS (ARPE-19 cells; [5]): 61 ± 40 %; IL-1β R.Q. mRNA (ARPE-19 cells; [5]): 20.81 ± 5.11 R.Q.; IL-6 R.Q. mRNA (ARPE-19 cells; [5]): 5.84 ± 1.13 R.Q.; IL-18 R.Q. mRNA (ARPE-19 cells; [5]): 0.03 ± 0.01 R.Q.; TNFα R.Q. mRNA (ARPE-19 cells; [5]): 5.39 ± 1.01 R.Q.; VEGF R.Q. mRNA (ARPE-19 cells; [5]): 0.04 ± 0.00 R.Q.; ROS (ARPE-19 cells; [6]): 159 ± 32%; IL-1β R.Q. mRNA (ARPE-19 cells; [6]): 27.76 ± 5.18 R.Q.; IL-6 R.Q. mRNA (ARPE-19 cells; [6]): 9.78 ± 2.30 R.Q.; IL-18 R.Q. mRNA (ARPE-19 cells; [6]): 0.01 ± 0.00 R.Q.; TNFα R.Q. mRNA (ARPE-19 cells; [6]): 3.61 ± 1.82 R.Q.; VEGF R.Q. mRNA (ARPE-19 cells; [6]): 0.20 ± 0.03 R.Q.
O=C(O)c1cc(O)c(C(=O)Nc2ccccc2C(=O)O)cc1O [Ia-001a, 4-(2-carboxyphenylaminocarbonyl)-2,5-dihydroxybenzoic acid] | significant reduction | significantly reduced |  |  |  |  |  |  |  |  |  |  |  |  |  |  |  |  |  |  | 
O=C(O)c1cc(NC(=O)c2cc(O)c(C(=O)Nc3ccc(O)c(C(=O)O)c3)cc2O)ccc1O [Ic-007a, 5-(4-(3-carboxy-4-hydroxyphenylaminocarbonyl)-2,5-dihydroxybenzamido)-2-hydroxy benzoic acid] |  |  | antiproliferative to human primary T cells (30 μM) and fibroblasts (30 μM, 10 μM, 3.3 μM, 1.1 μM) | not cytotoxic | decreased CD40, M-CSF | decreased VCAM-1, sTNFα, MIP-1α, I-TAC, MIG; increased IL-8; modulated IP-10 | 20 | decreased Collagen I, Collagen IV, TIMP-1, tPA, Collagen III, PAI-1, uPAR, bFGF | 32 ± 15% | 0.12 ± 0.01 R.Q. | 0.52 ± 0.49 R.Q. | 0.45 ± 0.18 R.Q. | 0.27 ± 0.07 R.Q. | 0.09 ± 0.02 R.Q. | 26 ± 4.6% | 0.15 ± 0.03 R.Q. | 0.20 ± 0.07 R.Q. | 0.07 ± 0.01 R.Q. | 0.59 ± 0.33 R.Q. | 0.12 ± 0.03 R.Q. | ROS (ARPE-19 cells; [5]): 33 ± 4.8 %; IL-1β R.Q. mRNA (ARPE-19 cells; [5]): 12.21 ± 1.46 R.Q.; IL-6 R.Q. mRNA (ARPE-19 cells; [5]): 0.52 ± 0.49 R.Q.; IL-18 R.Q. mRNA (ARPE-19 cells; [5]): 0.02 ± 0.00 R.Q.; TNFα R.Q. mRNA (ARPE-19 cells; [5]): 11.26 ± 0.96 R.Q.; VEGF R.Q. mRNA (ARPE-19 cells; [5]): 0.06 ± 0.02 R.Q.; ROS (ARPE-19 cells; [6]): 27 ± 13 %; IL-1β R.Q. mRNA (ARPE-19 cells; [6]): 10.66 ± 3.01 R.Q.; IL-6 R.Q. mRNA (ARPE-19 cells; [6]): 3.28 ± 1.46 R.Q.; IL-18 R.Q. mRNA (ARPE-19 cells; [6]): 0.02 ± 0.00 R.Q.; TNFα R.Q. mRNA (ARPE-19 cells; [6]): 5.22 ± 3.96 R.Q.; VEGF R.Q. mRNA (ARPE-19 cells; [6]): 0.17 ± 0.05 R.Q.
